In ChEMBL document CHEMBL4879554, “Data for DCP probe GNE-2256” (2021) one finds EC50 data, which are given here for one compound.

Molecules are shown by their SMILES.

Assay [1] addresses Tyrosine-protein kinase JAK1 (Homo sapiens, UniProt P23458). Put plainly: NanoBRET assay (JAK1, SGC Frankfurt). A general note: In BRET a luciferase serves as donor, and the signal depends on an acceptor being close.
Assay [2] has as its target Tyrosine-protein kinase JAK2 (Homo sapiens, UniProt O60674). The assay is described as follows: NanoBRET assay (JAK2, SGC Frankfurt).
Assay [3] addresses Receptor-type tyrosine-protein kinase FLT3 (Homo sapiens, UniProt P36888). Put plainly: NanoBRET assay (FLT3, SGC Frankfurt).

Sequence of Tyrosine-protein kinase JAK2 (O60674 whole entry): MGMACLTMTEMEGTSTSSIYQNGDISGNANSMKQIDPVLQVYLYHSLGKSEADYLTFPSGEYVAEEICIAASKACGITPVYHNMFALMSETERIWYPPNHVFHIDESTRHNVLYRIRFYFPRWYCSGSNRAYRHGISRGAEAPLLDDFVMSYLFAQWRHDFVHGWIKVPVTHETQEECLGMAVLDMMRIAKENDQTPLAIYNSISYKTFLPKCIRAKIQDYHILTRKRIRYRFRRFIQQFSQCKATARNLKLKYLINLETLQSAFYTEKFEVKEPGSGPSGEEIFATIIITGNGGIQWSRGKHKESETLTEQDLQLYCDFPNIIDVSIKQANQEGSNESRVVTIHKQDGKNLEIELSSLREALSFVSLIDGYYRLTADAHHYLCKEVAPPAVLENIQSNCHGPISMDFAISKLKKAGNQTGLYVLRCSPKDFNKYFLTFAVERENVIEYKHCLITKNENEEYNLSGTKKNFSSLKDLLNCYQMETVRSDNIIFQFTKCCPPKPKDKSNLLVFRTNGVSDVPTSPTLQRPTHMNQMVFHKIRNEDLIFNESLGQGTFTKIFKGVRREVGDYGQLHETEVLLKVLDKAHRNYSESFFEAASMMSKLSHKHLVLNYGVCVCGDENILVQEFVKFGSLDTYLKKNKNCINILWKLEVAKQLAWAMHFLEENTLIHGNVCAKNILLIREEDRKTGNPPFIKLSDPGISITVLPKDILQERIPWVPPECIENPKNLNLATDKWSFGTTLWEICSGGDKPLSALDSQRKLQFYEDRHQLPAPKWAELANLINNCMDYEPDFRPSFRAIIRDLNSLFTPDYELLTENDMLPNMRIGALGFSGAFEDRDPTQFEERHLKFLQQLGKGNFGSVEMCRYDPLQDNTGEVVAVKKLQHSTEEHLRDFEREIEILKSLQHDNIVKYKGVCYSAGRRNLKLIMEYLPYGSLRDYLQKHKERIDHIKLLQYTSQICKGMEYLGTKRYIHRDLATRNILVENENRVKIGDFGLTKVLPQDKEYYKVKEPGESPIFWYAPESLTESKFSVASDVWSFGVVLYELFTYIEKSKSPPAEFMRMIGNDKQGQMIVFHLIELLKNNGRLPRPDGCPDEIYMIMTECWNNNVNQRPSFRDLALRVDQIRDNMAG
Sequence of Receptor-type tyrosine-protein kinase FLT3 (P36888 whole entry): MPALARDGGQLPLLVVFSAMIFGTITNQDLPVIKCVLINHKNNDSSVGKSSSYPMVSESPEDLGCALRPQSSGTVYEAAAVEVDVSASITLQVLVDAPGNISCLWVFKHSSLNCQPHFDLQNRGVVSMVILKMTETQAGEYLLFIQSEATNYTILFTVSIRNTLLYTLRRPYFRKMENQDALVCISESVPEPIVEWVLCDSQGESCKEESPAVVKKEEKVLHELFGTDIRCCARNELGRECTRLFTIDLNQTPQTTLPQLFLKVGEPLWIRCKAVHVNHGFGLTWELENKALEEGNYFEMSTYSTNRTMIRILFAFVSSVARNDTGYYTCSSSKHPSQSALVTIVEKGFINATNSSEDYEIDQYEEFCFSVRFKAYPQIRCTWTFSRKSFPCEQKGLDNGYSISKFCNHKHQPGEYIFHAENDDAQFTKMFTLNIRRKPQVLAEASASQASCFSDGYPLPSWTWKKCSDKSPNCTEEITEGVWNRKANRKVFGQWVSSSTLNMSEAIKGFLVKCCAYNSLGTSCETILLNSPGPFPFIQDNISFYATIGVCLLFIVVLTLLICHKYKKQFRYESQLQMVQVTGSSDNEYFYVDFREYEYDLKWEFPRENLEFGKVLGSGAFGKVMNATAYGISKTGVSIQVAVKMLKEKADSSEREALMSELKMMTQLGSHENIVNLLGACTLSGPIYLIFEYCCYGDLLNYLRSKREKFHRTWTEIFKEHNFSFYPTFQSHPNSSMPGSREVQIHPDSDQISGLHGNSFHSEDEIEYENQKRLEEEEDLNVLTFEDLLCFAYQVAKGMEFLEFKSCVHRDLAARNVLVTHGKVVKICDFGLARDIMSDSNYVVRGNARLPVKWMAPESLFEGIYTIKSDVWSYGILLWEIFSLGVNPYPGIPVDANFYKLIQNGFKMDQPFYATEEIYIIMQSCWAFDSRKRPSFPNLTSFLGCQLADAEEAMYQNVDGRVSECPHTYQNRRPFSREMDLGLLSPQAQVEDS
Sequence of Tyrosine-protein kinase JAK1 (P23458 whole entry): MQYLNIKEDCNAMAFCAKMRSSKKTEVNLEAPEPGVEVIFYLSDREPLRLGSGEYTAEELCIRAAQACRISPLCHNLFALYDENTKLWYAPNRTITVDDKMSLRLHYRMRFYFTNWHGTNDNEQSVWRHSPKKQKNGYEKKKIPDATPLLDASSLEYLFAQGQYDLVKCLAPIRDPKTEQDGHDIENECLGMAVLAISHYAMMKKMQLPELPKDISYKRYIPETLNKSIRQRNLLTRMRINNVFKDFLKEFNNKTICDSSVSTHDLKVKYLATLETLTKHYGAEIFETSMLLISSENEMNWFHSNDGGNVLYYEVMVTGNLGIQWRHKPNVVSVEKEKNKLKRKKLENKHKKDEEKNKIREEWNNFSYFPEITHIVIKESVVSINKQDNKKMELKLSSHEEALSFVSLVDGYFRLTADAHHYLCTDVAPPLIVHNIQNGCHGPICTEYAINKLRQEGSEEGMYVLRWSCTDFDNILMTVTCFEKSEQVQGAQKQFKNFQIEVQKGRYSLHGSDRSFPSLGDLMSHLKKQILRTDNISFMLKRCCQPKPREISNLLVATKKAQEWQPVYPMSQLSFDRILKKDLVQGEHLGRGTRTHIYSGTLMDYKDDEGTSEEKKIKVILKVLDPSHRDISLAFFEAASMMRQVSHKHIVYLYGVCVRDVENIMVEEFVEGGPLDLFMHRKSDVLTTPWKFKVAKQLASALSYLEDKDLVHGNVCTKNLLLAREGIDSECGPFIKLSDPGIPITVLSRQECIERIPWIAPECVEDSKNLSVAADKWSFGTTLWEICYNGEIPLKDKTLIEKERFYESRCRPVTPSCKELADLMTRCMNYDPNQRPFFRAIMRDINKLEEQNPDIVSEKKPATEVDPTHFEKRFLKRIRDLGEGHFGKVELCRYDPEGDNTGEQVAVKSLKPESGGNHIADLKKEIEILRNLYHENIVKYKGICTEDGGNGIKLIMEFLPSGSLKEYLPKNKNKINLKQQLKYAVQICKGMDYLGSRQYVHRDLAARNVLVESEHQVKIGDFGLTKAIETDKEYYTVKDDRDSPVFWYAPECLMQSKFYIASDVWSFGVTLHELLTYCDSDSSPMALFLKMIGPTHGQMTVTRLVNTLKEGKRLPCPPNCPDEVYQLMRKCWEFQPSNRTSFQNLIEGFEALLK

As usually defined, the EC50 is the midpoint of the concentration-response curve. A higher EC50 goes with lower potency in that assay. In the case of `CN(C(=O)c1cnn2cccnc12)c1cc2c(cc1N1CCOCC1)C(=O)N(C[C@@H](F)C(C)(C)O)C2`, the EC50 in assay [1] is given as > 50 µM (not active); in assay [2], > 50 µM (not active); in assay [3] it was 3.6 µM (not active).
